Measurements from patent US20240060986A1, “METHOD FOR SELECTING PEPTIDE […] ON PROTEIN CYTOTOXICITY” (priority 2022, published 2024).
No end group written: not given here.

Target: T1, main protease (M^pro) of SARS-CoV2 virus (Severe acute respiratory syndrome coronavirus 2, UniProt P0DTD1)
T1 construct: 30 μl of 3CL Protease enzyme solution (0.05 ng/ul) was mixed with 10 μl of peptides; purchased BPS Bioscience 78042-1
Assay: biochemical

Row | Sequence | IC50 [µM]
1 | PVHPQMQTETGTAHC [Peptide M14] | 1200
2 | RQDLDYQRRRGAGISSTLVQSRK [Peptide M3] | 750
